Our source for the IC50 values is patent US20250163104A1, “MACROCYCLIC IMMUNOMODULATORS” (priority 2021, published 2025).

A word on the IC50: it is the midpoint of a concentration-inhibition curve.

The structures appear in SMILES notation. Where a SMILES comes first, the peptide text is derived from it. Bridges are numbered along the chain shown (N, C = ends). [ ]: non-standard residue; d: D form. The star is where a group is joined. ξ: configuration not given here. Bip = N[C@@H](Cc1ccc(-c2ccccc2)cc1)C(=O)O; Phe(3-Cl) = N[C@@H](Cc1cccc(Cl)c1)C(=O)O; Phe(3-Me) = Cc1cccc(C[C@H](N)C(=O)O)c1; Phe(4-F) = N[C@@H](Cc1ccc(F)cc1)C(=O)O; 3Pal = N[C@@H](Cc1cccnc1)C(=O)O; 4Pal = N[C@@H](Cc1ccncc1)C(=O)O; Aad = N[C@@H](CCCC(=O)O)C(=O)O; Cha = N[C@@H](CC1CCCCC1)C(=O)O; Cit = NC(=O)NCCC[C@H](N)C(=O)O; Ile(3ξ) = CCC(C)[C@H](N)C(=O)O; Carboxymethyl = O=C(O)C*; Orn = NCCC[C@H](N)C(=O)O; Dab = NCC[C@H](N)C(=O)O; Abu = CC[C@H](N)C(=O)O; Dap = NC[C@H](N)C(=O)O; ξOrn = NCCCC(N)C(=O)O; ξPra = C#CCC(N)C(=O)O

In this assay the target is T1, human PD-1 / PD-L1-Ig binding on Jurkat cell line over-expressing human PD-1 (Jurkat-PD-1) (Homo sapiens, UniProt Q15116).
T1 construct: expressed in transfected cells; host or cells: Jurkat
Kind of assay: Jurkat-PD-1 Cell Binding High-Content Screening Assay (CBA). It counts as cell-based. The following applies: Jurkat-PD-1 cells, PE-labeled PD-L1-Ig 20 nM final; read-out: Jurkat HPD1_PDL1 IC50. The method in brief:
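Compounds were preincubated with Jurkat-hPD-1 cells in DMEM plus 10% fetal calf serum for 2 h at 37° C. Phycoerythrin-labeled PD-L1-Ig (20 nM final) was then added for 1 hour. Cells were fixed in 4% paraformaldehyde with Hoechst 33342, and bound fluorescence was quantified by high-content imaging.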

T1 sequence (Q15116 25-288): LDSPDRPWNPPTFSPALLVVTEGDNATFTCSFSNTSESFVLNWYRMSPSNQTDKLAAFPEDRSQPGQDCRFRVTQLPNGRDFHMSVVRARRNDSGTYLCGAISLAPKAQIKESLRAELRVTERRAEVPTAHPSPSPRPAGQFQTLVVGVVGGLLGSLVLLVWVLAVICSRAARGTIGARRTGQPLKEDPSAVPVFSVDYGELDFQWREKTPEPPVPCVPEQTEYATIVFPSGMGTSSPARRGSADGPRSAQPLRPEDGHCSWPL

As for `CCC(C)[C@@H]1NC(=O)[C@H](Cc2ccc(-c3ccccc3)cc2)NC(=O)[C@H](CC(C)C)NC(=O)[C@H](Cc2c[nH]c3ccccc23)NC(=O)[C@H](CC(=O)O)NC(=O)[C@H](Cc2ccc(OCC(=O)O)cc2)NC(=O)[C@H](Cc2ccc(OCC(=O)O)cc2)NC(=O)CSC[C@@H](C(=O)N[C@@H](CC(N)=O)C(=O)O)NC(=O)[C@H](CO)NC(=O)[C@H](C(C)C)NC(=O)[C@H](CC(C)C)NC(=O)[C@H](CCN)NC(=O)[C@@H](CC(C)C)NC(=O)[C@H](CCCN)NC1=O` (stereo partly drawn) [Compound 2576] ({CH2CO}-Y(Carboxymethyl)Y(Carboxymethyl)DWL[Bip][Ile(3ξ)][Orn][dL][Dab]LVSCN-OH; thioether N-14), the IC50 was 0.0124 µM.

Take `C#CCC(NC(=O)[C@H](CCCCN)NC(=O)[C@@H]1CSCC(=O)N[C@@H](Cc2ccncc2)C(=O)N[C@@H](Cc2ccc(OCC(=O)O)cc2)C(=O)N[C@@H](CC(=O)O)C(=O)N[C@@H](Cc2c[nH]c3ccccc23)C(=O)N[C@@H](C(C)C)C(=O)N[C@@H](Cc2ccc(-c3ccccc3)cc2)C(=O)N[C@@H]([C@@H](C)CC)C(=O)N[C@@H](CCCN)C(=O)N[C@H](CC(C)C)C(=O)N[C@@H](CCN)C(=O)N[C@@H](CC(C)C)C(=O)N[C@@H](C(C)C)C(=O)N[C@@H]([C@@H](C)O)C(=O)N1)C(N)=O` (stereo partly drawn) [Compound 1761] ({CH2CO}-[4Pal]Y(Carboxymethyl)DWV[Bip]I[Orn][dL][Dab]LVTCK[ξPra]-NH2; thioether N-14): the half-inhibitory concentration (IC50) amounted to 0.0139 µM. `CC[C@@H]1NC(=O)[C@H](Cc2c[nH]c3ccccc23)NC(=O)[C@H](CC(=O)O)NC(=O)[C@H](Cc2ccc(OCC(=O)O)cc2)NC(=O)[C@H](CN)NC(=O)CSC[C@@H](C(=O)N[C@@H](C)C(N)=O)NC(=O)[C@H]([C@@H](C)O)NC(=O)[C@H](C(C)C)NC(=O)[C@H](CC2CCCCC2)NC(=O)[C@H](CCN)NC(=O)[C@@H](CC(C)C)NC(=O)[C@H](CCCN)NC(=O)[C@H](CCCNC(N)=O)NC(=O)[C@H](Cc2ccc(-c3ccccc3)cc2)NC1=O` [Compound 1356] ({CH2CO}-[Dap]Y(Carboxymethyl)DW[Abu][Bip][Cit][Orn][dL][Dab][Cha]VTCA-NH2; thioether N-14): the IC50 came out at 0.0055 µM. For `CC(C)C[C@H]1NC(=O)[C@H](CCCN)NC(=O)[C@H](CCC(=O)O)NC(=O)[C@H](Cc2ccc(-c3ccccc3)cc2)NC(=O)[C@H](C(C)C)NC(=O)[C@H](Cc2cccc(Cl)c2)NC(=O)[C@H](CC(=O)O)NC(=O)[C@H](Cc2ccncc2)NC(=O)[C@H](Cc2ccc(OCC(=O)O)cc2)NC(=O)CSC[C@@H](C(=O)N[C@@H](C)C(N)=O)NC(=O)[C@H]([C@@H](C)O)NC(=O)[C@H](C(C)C)NC(=O)[C@H](CC2CCCCC2)NC(=O)[C@H](CCN)NC1=O` [Compound 1493] ({CH2CO}-Y(Carboxymethyl)[4Pal]D[Phe(3-Cl)]V[Bip]E[Orn][dL][Dab][Cha]VTCA-NH2; thioether N-14), the IC50 worked out at 0.0108 µM. With `CC(C)C[C@H]1NC(=O)[C@H](CCCN)NC(=O)[C@H](CCCNC(N)=O)NC(=O)[C@H](Cc2ccc(-c3ccccc3)cc2)NC(=O)[C@H](C(C)C)NC(=O)[C@H](Cc2c[nH]c3ccccc23)NC(=O)[C@H](CC(=O)O)NC(=O)[C@H](CCCC(=O)O)NC(=O)[C@H](CN)NC(=O)CSC[C@@H](C(=O)N[C@@H](C)C(N)=O)NC(=O)[C@H]([C@@H](C)O)NC(=O)[C@H](C(C)C)NC(=O)[C@H](CC2CCCCC2)NC(=O)[C@H](CCN)NC1=O` [Compound 2125] ({CH2CO}-[Dap][Aad]DWV[Bip][Cit][Orn][dL][Dab][Cha]VTCA-NH2; thioether N-14), the IC50 turned out to be 0.0571 µM. With `CC(C)C[C@H]1NC(=O)[C@H](CCCN)NC(=O)[C@H](CCCNC(N)=O)NC(=O)[C@H](Cc2ccc(-c3ccccc3)cc2)NC(=O)[C@H](C(C)C)NC(=O)[C@H](Cc2c[nH]c3ccccc23)NC(=O)[C@H](CC(=O)O)NC(=O)[C@H](Cc2ccc(O)cc2)NC(=O)[C@H](Cc2ccccc2)NC(=O)CSC[C@@H](C(=O)N[C@@H](C)C(N)=O)NC(=O)[C@H]([C@@H](C)O)NC(=O)[C@H](C(C)C)NC(=O)[C@H](CC2CCCCC2)NC(=O)[C@H](CCCNC(=N)N)NC1=O` [Compound 1156] ({CH2CO}-FYDWV[Bip][Cit][Orn][dL]R[Cha]VTCA-NH2; thioether N-14), the IC50 worked out at 0.0207 µM. Then `CC(C)C[C@H]1NC(=O)[C@H](CCCN)NC(=O)[C@H](CCCNC(N)=O)NC(=O)[C@H](Cc2ccc(-c3ccccc3)cc2)NC(=O)[C@H](C(C)C)NC(=O)[C@H](Cc2c[nH]c3ccccc23)NC(=O)[C@H](CC(=O)O)NC(=O)[C@H](Cc2ccc(OCC(=O)O)cc2)NC(=O)[C@H](CN)NC(=O)CSC[C@@H](C(=O)N[C@@H](C)C(N)=O)NC(=O)[C@H]([C@@H](C)O)NC(=O)[C@H](C(C)C)NC(=O)[C@H](Cc2ccc(F)cc2)NC(=O)[C@H](CCN)NC1=O` [Compound 1367] ({CH2CO}-[Dap]Y(Carboxymethyl)DWV[Bip][Cit][Orn][dL][Dab][Phe(4-F)]VTCA-NH2; thioether N-14), with 0.0217 µM; and `CCC(C)[C@@H]1NC(=O)[C@H](Cc2ccc(-c3ccccc3)cc2)NC(=O)[C@H](C(C)C)NC(=O)[C@H](Cc2c[nH]c3ccccc23)NC(=O)[C@H](CC(=O)O)NC(=O)[C@H](Cc2cccnc2)NC(=O)[C@H](Cc2ccccc2)NC(=O)CSC[C@@H](C(=O)N[C@@H](C)C(N)=O)NC(=O)[C@H]([C@@H](C)O)NC(=O)[C@H](C(C)C)NC(=O)[C@H](CC2CCCCC2)NC(=O)[C@H](CCN)NC(=O)[C@@H](CC(C)C)NC(=O)[C@H](CCCN)NC1=O` (stereo partly drawn) [Compound 2229] ({CH2CO}-F[3Pal]DWV[Bip][Ile(3ξ)][Orn][dL][Dab][Cha]VTCA-NH2; thioether N-14), with 0.0215 µM. Take `Cc1cccc(C[C@@H]2NC(=O)[C@H](CC(=O)O)NC(=O)[C@H](Cc3ccc(OCC(=O)O)cc3)NC(=O)[C@H](CN)NC(=O)CSC[C@@H](C(=O)N[C@@H](CCN)C(N)=O)NC(=O)C(CCCN)NC(=O)[C@H](C(C)C)NC(=O)[C@H](CC3CCCCC3)NC(=O)[C@H](CCN)NC(=O)[C@@H](CC(C)C)NC(=O)[C@H](CCCN)NC(=O)[C@H](Cc3ccc(O)cc3)NC(=O)[C@H](Cc3ccc(-c4ccccc4)cc3)NC(=O)[C@H](Cc3ccc(O)cc3)NC2=O)c1` (stereo partly drawn) [Compound 2256] ({CH2CO}-[Dap]Y(Carboxymethyl)D[Phe(3-Me)]Y[Bip]Y[Orn][dL][Dab][Cha]V[ξOrn]C[Dab]-NH2; thioether N-14): the IC50 was determined as 0.0049 µM.

For `CCCC[C@@H]1NC(=O)[C@H](CCN)NC(=O)[C@@H](CC(C)C)NC(=O)[C@H](CCCN)NC(=O)[C@H]([C@@H](C)CC)NC(=O)[C@H](Cc2ccc(-c3ccccc3)cc2)NC(=O)[C@H](C(C)C)NC(=O)[C@H](Cc2cccc(C)c2)NC(=O)[C@H](CC(=O)O)NC(=O)[C@H](Cc2ccc(C(=O)O)cc2)NC(=O)[C@H](Cc2ccncc2)NC(=O)CSC[C@@H](C(=O)N[C@@H](C)C(N)=O)NC(=O)[C@H]([C@@H](C)O)NC(=O)[C@H](C(C)C)NC1=O` [Compound 1191], the IC50 turned out to be 0.01 µM.

Consider `CC[C@H](C)[C@@H]1NC(=O)[C@H](Cc2ccc(-c3ccccc3)cc2)NC(=O)[C@H](C(C)C)NC(=O)[C@H](Cc2cccc(C)c2)NC(=O)[C@H](CC(=O)O)NC(=O)[C@H](Cc2ccc(N=[N+]=[N-])cc2)NC(=O)[C@H](Cc2ccncc2)NC(=O)CSC[C@@H](C(=O)N[C@@H](C)C(N)=O)NC(=O)[C@H]([C@@H](C)O)NC(=O)[C@H](C(C)C)NC(=O)[C@H](CC2CCCCC2)NC(=O)[C@H](CCN)NC(=O)[C@@H](CC(C)C)NC(=O)[C@H](CCCN)NC1=O` [Compound 2240], for which the IC50 is 0.259 µM.
